# Source: article PMC9203742 (Nature Communications, 2022)
# Where “and” joins values, the source holds several entries; their conditions need not be identical. Equal entries are not always repeated.
# Experiments:
# [1] = system: HEK293 cells, vector control; assay: Fura-2 Ca2+ imaging in HEK293 cells transfected with control vector (Vec); assay type: cell-based; conditions: single-cell values #1-#20; for Ca2+ response of individual cells (source data Suppl Fig1), Vec: test concentration or dose not given here
# [2] = target: T1, mGlu1 A59H/N264H mutant (Rattus norvegicus, UniProt P23385, A59H/N264H); assay: Fura-2 Ca2+ imaging in HEK293 cells expressing mGlu1 A59H/N264H; assay type: cell-based
# T1 construct: expressed in transfected cells; host or cells: HEK293
# [3] = system: mGlu1 construct not given; assay: Fura-2 Ca2+ imaging in HEK293 cells, source data Suppl Fig1, right group (c18-c26); construct not given; assay type: cell-based, rat; conditions: single-cell values, cells #15-#20; right group of third block
# Text: (§1) Supplement 41467_2022_30828_MOESM6_ESM.zip/Ojima et al_source data_Suppl Fig.xlsx, sheet "Suppl Fig1" | column: Glu; NiCl2; CuCl2; ZnCl2; CdCl2; Na2PdCl2; Pd(bpy)
# [4] = target: T2, mGlu1 A59H/A265H mutant (Rattus norvegicus, UniProt P23385, A265H/A59H); assay: Fura-2 Ca2+ imaging in HEK293 cells expressing mGlu1 A59H/A265H; assay type: cell-based; conditions: single-cell values
# T2 construct: expressed in transfected cells; host or cells: HEK293
# [5] = system: mGlu1 construct not given; assay: Fura-2 Ca2+ imaging in HEK293 cells, source data Suppl Fig1, middle group (c9-c17); construct not given; assay type: cell-based, rat; conditions: single-cell values, cells #15-#20; middle group of third block
# Text: as §1
# [6] = target: T3, WT mGlu1 (Rattus norvegicus, UniProt P23385); assay type: cell-based; note: test concentration or dose not given here
# T3 construct: expressed in transfected cells; host or cells: HEK293
# [7] = target: T4, mGlu1 A59H/G266H mutant (Rattus norvegicus, UniProt P23385, A59H/G266H); assay: Fura-2 Ca2+ imaging in HEK293 cells expressing mGlu1 A59H/G266H; assay type: cell-based; conditions: Fig.1e; for Ca2+ response (delta ratio), A59H/G266H: test concentration or dose not given here
# T4 construct: expressed in transfected cells; host or cells: HEK293
# [8] = target: T5, mGlu1 P58H/N264H mutant (Rattus norvegicus, UniProt P23385, N264H/P58H); assay: Fura-2 Ca2+ imaging in HEK293 cells expressing mGlu1 P58H/N264H; assay type: cell-based
# T5 construct: expressed in transfected cells; host or cells: HEK293
# [9] = system: HEK293 cells, vector control; assay: Fura-2 Ca2+ imaging in HEK293 cells transfected with control vector (Vec); assay type: cell-based; conditions: Fig.1e; for Ca2+ response of individual cells (source data Suppl Fig1), Vec: test concentration or dose not given here
# Text: Supplement 41467_2022_30828_MOESM6_ESM.zip/Ojima et al_source data_Main Figure.xlsx, sheet "Fig.1e" | column: Vec
# [10] = target: T4, mGlu1 A59H/G266H mutant; assay: Fura-2 Ca2+ imaging in HEK293 cells expressing mGlu1 A59H/G266H; assay type: cell-based; conditions: single-cell values
# [11] = system: mGlu1 construct not given; assay: Fura-2 Ca2+ imaging in HEK293 cells, source data Suppl Fig1, left group (c0-c8); construct not given; assay type: cell-based, rat; conditions: single-cell values, cells #15-#20; left group of third block
# Text: as §1
# [12] = target: T6, mGlu1 E60H/N264H mutant (Rattus norvegicus, UniProt P23385, E60H/N264H); assay: Fura-2 Ca2+ imaging in HEK293 cells expressing mGlu1 E60H/N264H; assay type: cell-based
# T6 construct: expressed in transfected cells; host or cells: HEK293
# [13] = target: T7, mGlu1 P57H/N264H mutant (Rattus norvegicus, UniProt P23385, N264H/P57H); assay: Fura-2 Ca2+ imaging in HEK293 cells expressing mGlu1 P57H/N264H; assay type: cell-based
# T7 construct: expressed in transfected cells; host or cells: HEK293
# [14] = target: T2, mGlu1 A59H/A265H mutant; assay: Fura-2 Ca2+ imaging in HEK293 cells expressing mGlu1 A59H/A265H; assay type: cell-based; conditions: Fig.1e
# [15] = target: T8, mGlu1 K61H/N264H mutant (Rattus norvegicus, UniProt P23385, K61H/N264H); assay: Fura-2 Ca2+ imaging in HEK293 cells expressing mGlu1 K61H/N264H; assay type: cell-based
# T8 construct: expressed in transfected cells; host or cells: HEK293
# T8 sequence (P23385 19-1199 K61H/N264H): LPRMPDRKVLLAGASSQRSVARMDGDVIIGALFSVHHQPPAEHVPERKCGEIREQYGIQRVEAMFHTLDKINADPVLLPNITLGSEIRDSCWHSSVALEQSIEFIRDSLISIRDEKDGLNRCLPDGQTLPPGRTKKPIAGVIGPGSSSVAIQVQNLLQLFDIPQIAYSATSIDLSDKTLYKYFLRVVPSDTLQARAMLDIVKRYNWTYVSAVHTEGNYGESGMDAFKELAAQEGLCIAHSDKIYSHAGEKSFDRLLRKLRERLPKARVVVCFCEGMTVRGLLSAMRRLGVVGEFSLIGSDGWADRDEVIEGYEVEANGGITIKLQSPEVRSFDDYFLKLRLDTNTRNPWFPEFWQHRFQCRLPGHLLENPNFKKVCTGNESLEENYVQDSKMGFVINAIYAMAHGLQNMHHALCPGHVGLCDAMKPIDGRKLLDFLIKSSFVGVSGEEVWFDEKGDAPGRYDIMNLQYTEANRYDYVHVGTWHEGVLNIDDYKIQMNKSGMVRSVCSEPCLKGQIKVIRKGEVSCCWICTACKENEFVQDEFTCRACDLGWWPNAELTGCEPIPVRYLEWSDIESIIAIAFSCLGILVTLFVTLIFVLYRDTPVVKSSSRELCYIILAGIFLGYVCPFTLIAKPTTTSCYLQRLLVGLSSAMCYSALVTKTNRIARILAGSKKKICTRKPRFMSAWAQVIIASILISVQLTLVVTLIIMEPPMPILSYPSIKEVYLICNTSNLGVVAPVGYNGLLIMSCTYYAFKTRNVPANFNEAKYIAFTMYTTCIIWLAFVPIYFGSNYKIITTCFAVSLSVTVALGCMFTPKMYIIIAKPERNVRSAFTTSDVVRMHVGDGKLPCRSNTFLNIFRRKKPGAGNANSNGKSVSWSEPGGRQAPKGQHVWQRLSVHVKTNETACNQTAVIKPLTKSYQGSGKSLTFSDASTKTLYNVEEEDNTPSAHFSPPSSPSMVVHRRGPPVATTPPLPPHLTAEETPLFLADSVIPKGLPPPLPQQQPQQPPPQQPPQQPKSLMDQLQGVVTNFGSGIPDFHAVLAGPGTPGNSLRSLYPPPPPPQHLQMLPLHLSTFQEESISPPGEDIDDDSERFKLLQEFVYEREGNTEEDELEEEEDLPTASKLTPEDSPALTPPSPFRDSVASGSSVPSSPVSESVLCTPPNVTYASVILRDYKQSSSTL
# T7 sequence (P23385 19-1199 P57H/N264H): as the sequence (P23385 19-1199 K61H/N264H) above, with P39H, H43K counted along it
# T6 sequence (P23385 19-1199 E60H/N264H): as the sequence (P23385 19-1199 K61H/N264H) above, with E42H, H43K counted along it
# T1 sequence (P23385 19-1199 A59H/N264H): as the sequence (P23385 19-1199 K61H/N264H) above, with A41H, H43K counted along it
# T4 sequence (P23385 19-1199 A59H/G266H): as the sequence (P23385 19-1199 K61H/N264H) above, with A41H, H43K, H246N, G248H counted along it
# T3 sequence (P23385 19-1199): as the sequence (P23385 19-1199 K61H/N264H) above, with H43K, H246N counted along it
# T5 sequence (P23385 19-1199 P58H/N264H): as the sequence (P23385 19-1199 K61H/N264H) above, with P40H, H43K counted along it
# T2 sequence (P23385 19-1199 A59H/A265H): as the sequence (P23385 19-1199 K61H/N264H) above, with A41H, H43K, H246N, A247H counted along it
structure (smiles),measurement,setting,value
[Cl][Ni][Cl] [NiCl2],"Ca2+ response of individual cells (source data Suppl Fig1), Vec",[1],-0.01071 and 0.01858 and -0.01644 and -0.01578 and -0.0028 and -0.01812 and -0.01767 and -0.01609 and -0.0009 and -0.0156 and -0.02858 and -0.009415 and -0.001254 and -0.01445 and -0.004377 and -0.001977 and -0.0008692 and 0.006415 and 0.01396 and 0.004169
same,"Ca2+ response (delta ratio), A59H/N264H",[2]; Fig.1e,0.05683
same,"Ca2+ response of individual cells (source data Suppl Fig1), A59H/N264H","[2]; single-cell values #1-#20, A59H/N264H",0.3729 and -0.001931 and -0.001046 and 0.01178 and 0.01916 and -0.01828 and -0.02652 and 0.02399 and 0.0008077 and 0.2216 and -0.004754 and -0.01916 and -0.02225 and 0.2474 and 0.3157 and 0.001138 and -0.0037 and -0.007646 and -0.0005385 and 0.0279
same,"Ca2+ response of individual cells (source data, sheet Suppl Fig1)",[3],0.03285 and -0.01932 and -0.04406 and 0.003838 and -0.02115 and 0.02962
same,"Ca2+ response of individual cells (source data Suppl Fig1), A59H/A265H",[4],-0.0004462 and -0.005215 and 0.006554 and -0.007815 and 0.01005 and -0.006508 and -0.02278 and 0.001031 and 0.01621 and 0.004377 and -0.02859 and 0.008423 and 0.09357 and 0.07873
same,"Ca2+ response of individual cells (source data, sheet Suppl Fig1)",[5],0.03642 and 0.005192 and 0.02775 and -0.01323 and -0.002362 and 0.009469
same,"Ca2+ response (delta ratio), WT",[6]; Fig.1e,0.03319
same,"Ca2+ response of individual cells (source data Suppl Fig1), WT","[6]; single-cell values #1-#20, WT",-0.005477 and -0.01458 and 0.001892 and -0.01835 and 0.1195 and 0.01671 and 0.05379 and 0.4457 and 0.004608 and -0.002423 and 0.004238 and 0.01116 and 0.1174 and -0.002515 and -0.001223 and -0.001015 and -0.0129 and -0.004708 and 0.01682 and -0.06482
same,"Ca2+ response (delta ratio), A59H/G266H",[7],-3.81E-05
same,"Ca2+ response (delta ratio), P58H/N264H",[8]; Fig.1e,0.05353
same,"Ca2+ response of individual cells (source data Suppl Fig1), P58H/N264H","[8]; single-cell values #1-#20, P58H/N264H",0.03009 and 0.04043 and -0.04005 and 0.07079 and 0.04304 and 0.04053 and 0.04913 and 0.06845 and 0.2599 and -0.02289 and 0.03599 and 0.03797 and 0.05281 and 0.1306 and 0.05504 and 0.04257 and 0.06472 and 0.07143 and 0.03615 and 0.003946
same,"Ca2+ response (delta ratio), Vec",[9],-0.006595
same,"Ca2+ response of individual cells (source data Suppl Fig1), A59H/G266H",[10],-0.007338 and -0.001015 and -0.03149 and 0.03385 and 0.01174 and 0.008792 and -0.03335 and -0.003362 and 0.01265 and 0.02216 and 0.003731 and -0.008569 and 0.01177 and -0.002115
same,"Ca2+ response of individual cells (source data, sheet Suppl Fig1)",[11],-0.01619 and -0.01292 and 0.01722 and -0.04921 and -0.009638 and -0.02348
same,"Ca2+ response (delta ratio), E60H/N264H",[12]; Fig.1e,-0.01792
same,"Ca2+ response of individual cells (source data Suppl Fig1), E60H/N264H","[12]; single-cell values #1-#20, E60H/N264H",-0.0467 and -0.05411 and -0.02817 and -0.02148 and 0.004623 and 0.0091 and -0.02117 and -0.04309 and -0.01538 and -0.003069 and -0.02522 and -0.003569 and 0.01539 and -0.02995 and -0.01439 and -0.004777 and -0.04676 and -0.0003 and -0.01138
same,"Ca2+ response (delta ratio), P57H/N264H",[13]; Fig.1e,0.01834
same,"Ca2+ response of individual cells (source data Suppl Fig1), P57H/N264H","[13]; single-cell values #1-#20, P57H/N264H",-0.01177 and -0.0082 and 0.005215 and 0.04513 and 0.01995 and 0.003931 and -0.01436 and 0.02328 and -0.02887 and -0.004769 and -0.02686 and -0.008069 and 0.003369 and 0.01493 and -0.02254 and -0.001223 and 0.3415 and -0.007623 and 0.04519 and -0.0014
same,"Ca2+ response (delta ratio), A59H/A265H",[14],0.01054
same,"Ca2+ response (delta ratio), K61H/N264H",[15]; Fig.1e,-0.01365
same,"Ca2+ response of individual cells (source data Suppl Fig1), K61H/N264H","[15]; single-cell values, K61H/N264H",-0.03782 and -0.01632 and -0.02464 and 0.009846 and -0.01781 and 0.02198 and -0.0009692 and 0.02142 and -0.009608 and -0.02934 and -0.05039 and -0.01796 and -0.007623 and -0.01945
